Legend:
alcohol dehydrogenase 1 = target: T1, alcohol dehydrogenase 1 (Mus musculus, UniProt P00329); experiment: LC/MS/MS identification of proteins from mouse liver extracts labeled with MTS-I-49; assay type: biochemical
T1 construct: from tissue; host or cells: mouse liver extract
From the text: (§1) (1991) Irreversible inhibition of serine proteases by peptide derivatives of (alpha-aminoalkyl)phosphonate diphenyl esters. Biochemistry 30, 485-493). However, it has not been used for any proteomic applications. We used MTS-I-49 to label mouse liver extracts and analyze the labeled sample by both SDS-PAGE (FIG. 5B) and by direct chemical cleavage or on bead digestion.
(§2) After enrichment on immobilized avidin, each of the three labeled proteomes (FIG. 5b) was divided into two aliquots. One was prepared for LC-MS/MS analysis by “on bead” digestion, while the other was chemically eluted and digested “in solution.” Proteins identified in each tissue lysate are listed with their accession number and theoretical molecular weight (MW). To compare both approaches, the number of identified peptides and percentage of amino acid sequence coverage is listed for each protein.
(§3) Proteins in the above Table were identified by LC/MS/MS analysis of on bead digested or chemically eluted proteins from mouse liver extracts labeled with MTS-I-49. […] BLAST database searching identified it as liver carboxylesterase 4. A number of additional endogenously biotinylated proteins were identified in the on-bead digested sample.

hemoglobin alpha 1 = target: T2, hemoglobin alpha 1 (Mus musculus, UniProt P01942); experiment: as above; assay type: biochemical
T2 construct: from tissue; host or cells: mouse liver extract
From the text: as §1, §2, §3

[1] = test system: acetyl-Coenzyme A dehydrogenase; experiment: as above; assay type: biochemical
From the text: as §1, §2, §3

[2] = test system: glutathione-S-transferase; experiment: as above; assay type: biochemical
From the text: as §1, §2, §3

carbonmonoxy hemoglobin = experiment: as above; assay type: biochemical
From the text: as §1, §2, §3

[3] = test system: 3-hydrozy-3-methylglutaryl-coenzyme A-synthase; experiment: as above; assay type: biochemical
From the text: as §1, §2, §3

albumin 1 = target: T3, albumin 1 (Mus musculus, UniProt P07724); experiment: as above; assay type: biochemical
T3 construct: from tissue; host or cells: mouse liver extract
From the text: as §1, §2, §3

[4] = test system: fructose-bisphosphate aldolase; experiment: as above; assay type: biochemical
From the text: as §1, §2, §3

[5] = target: T4, glycine N-methyltransferase (Mus musculus, UniProt Q9QXF8); experiment: as above; assay type: biochemical
T4 construct: from tissue; host or cells: mouse liver extract
T4 sequence (Q9QXF8 1-293): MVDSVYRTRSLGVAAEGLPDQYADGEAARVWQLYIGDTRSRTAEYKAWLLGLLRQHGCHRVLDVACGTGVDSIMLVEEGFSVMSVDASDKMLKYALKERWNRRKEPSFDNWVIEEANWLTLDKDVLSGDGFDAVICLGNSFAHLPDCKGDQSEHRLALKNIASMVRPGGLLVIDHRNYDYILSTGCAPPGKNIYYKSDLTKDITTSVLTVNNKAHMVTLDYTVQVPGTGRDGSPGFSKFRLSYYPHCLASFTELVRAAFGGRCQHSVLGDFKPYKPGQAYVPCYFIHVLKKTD
From the text: as §1, §2, §3

[6] = target: T5, propionyl-Coenzyme A carboxylase (Mus musculus, UniProt Q91ZA3); experiment: as above; assay type: biochemical
T5 construct: from tissue; host or cells: mouse liver extract
T5 sequence (Q91ZA3 49-724): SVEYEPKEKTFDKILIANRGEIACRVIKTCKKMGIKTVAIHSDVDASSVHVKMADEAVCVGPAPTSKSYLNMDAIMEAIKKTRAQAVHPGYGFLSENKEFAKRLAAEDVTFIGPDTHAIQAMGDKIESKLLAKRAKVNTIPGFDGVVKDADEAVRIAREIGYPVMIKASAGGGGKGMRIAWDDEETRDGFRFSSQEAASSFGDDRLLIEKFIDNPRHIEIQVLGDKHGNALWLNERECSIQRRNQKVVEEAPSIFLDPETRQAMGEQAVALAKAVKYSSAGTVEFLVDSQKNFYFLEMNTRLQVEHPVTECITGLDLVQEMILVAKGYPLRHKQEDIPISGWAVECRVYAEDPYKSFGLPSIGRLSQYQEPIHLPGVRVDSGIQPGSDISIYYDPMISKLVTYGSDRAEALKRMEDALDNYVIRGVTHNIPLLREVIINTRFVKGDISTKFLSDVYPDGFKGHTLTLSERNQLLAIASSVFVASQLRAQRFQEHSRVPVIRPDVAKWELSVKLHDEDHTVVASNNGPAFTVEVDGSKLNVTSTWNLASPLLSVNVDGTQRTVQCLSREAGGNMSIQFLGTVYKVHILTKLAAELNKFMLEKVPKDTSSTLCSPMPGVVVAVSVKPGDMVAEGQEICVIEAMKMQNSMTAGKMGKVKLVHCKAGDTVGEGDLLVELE
T5 sequence (Q99MN9 29-541 partner): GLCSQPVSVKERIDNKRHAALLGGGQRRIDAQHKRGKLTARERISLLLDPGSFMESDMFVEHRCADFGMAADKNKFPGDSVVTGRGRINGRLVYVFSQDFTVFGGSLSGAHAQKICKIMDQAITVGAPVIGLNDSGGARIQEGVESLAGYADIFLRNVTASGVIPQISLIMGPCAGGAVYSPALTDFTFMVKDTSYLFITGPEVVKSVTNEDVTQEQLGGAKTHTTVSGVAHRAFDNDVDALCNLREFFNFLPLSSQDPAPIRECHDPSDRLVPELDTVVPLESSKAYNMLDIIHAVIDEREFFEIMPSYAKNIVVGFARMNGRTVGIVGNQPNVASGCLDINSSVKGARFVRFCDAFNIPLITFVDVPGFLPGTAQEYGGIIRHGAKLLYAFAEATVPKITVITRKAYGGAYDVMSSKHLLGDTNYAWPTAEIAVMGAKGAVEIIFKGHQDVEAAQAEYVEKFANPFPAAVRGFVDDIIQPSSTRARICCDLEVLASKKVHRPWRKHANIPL
From the text: as §1, §2, §3

[7] = Background peptides, chemical elution versus on-bead digestion; design: species or system mouse; settings: chemical elution compared with on-bead digestion
Experimental: as §2
Carboxylesterase 4 has not been characterized on a functional level and has never been confirmed to be catalytically active (Rawlings, N. D., Morton, F. R., and Barrett, A. J. (2006) MEROPS: the peptidase database. Nucleic Acids Res 34, D270-272.). […] Overall the level of background peptides was decreased by over 90%, when chemical elution was used for the sample preparation (as shown in the above Table). Although the number of carboxylesterase peptides identified was reduced compared to the on-bead sample we could still make a confident identification with nearly 40% coverage of peptide sequence.

[8] = chemically eluted, digested in solution

T3 sequence (P07724 25-608): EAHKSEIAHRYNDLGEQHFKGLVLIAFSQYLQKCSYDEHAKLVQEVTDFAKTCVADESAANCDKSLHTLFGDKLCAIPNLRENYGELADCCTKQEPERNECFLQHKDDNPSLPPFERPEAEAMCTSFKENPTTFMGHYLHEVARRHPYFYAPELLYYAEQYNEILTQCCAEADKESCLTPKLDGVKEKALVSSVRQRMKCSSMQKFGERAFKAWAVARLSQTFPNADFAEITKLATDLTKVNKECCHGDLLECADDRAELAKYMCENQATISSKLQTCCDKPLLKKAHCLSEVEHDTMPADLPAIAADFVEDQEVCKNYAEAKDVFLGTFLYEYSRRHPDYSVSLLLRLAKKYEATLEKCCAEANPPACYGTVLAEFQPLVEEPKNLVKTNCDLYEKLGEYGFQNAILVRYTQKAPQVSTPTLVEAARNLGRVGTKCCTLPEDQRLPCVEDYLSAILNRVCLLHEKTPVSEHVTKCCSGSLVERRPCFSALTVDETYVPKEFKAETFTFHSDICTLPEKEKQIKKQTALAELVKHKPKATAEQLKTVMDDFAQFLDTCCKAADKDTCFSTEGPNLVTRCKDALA
T2 sequence (P01942 2-142 limits assumed): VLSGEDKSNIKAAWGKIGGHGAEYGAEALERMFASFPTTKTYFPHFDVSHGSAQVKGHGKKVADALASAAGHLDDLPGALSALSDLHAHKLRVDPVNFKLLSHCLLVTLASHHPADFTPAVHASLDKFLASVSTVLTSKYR
T2 sequence (P02088 2-147 partner limits assumed): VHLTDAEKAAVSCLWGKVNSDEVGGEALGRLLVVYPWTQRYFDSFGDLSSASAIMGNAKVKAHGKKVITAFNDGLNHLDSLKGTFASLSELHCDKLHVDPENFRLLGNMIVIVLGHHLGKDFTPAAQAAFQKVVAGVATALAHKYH
T1 sequence (P00329 whole entry): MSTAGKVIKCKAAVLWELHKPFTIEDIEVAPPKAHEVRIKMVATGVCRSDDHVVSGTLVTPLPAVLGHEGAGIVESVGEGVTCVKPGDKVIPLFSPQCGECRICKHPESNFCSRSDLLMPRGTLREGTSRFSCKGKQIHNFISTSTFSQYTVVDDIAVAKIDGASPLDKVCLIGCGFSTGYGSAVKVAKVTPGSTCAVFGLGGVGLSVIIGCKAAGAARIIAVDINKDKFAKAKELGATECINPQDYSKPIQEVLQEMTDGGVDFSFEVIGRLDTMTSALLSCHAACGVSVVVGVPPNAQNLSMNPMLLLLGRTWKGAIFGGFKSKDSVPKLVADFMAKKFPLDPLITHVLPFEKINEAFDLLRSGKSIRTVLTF

C[C@H](NC(=O)c1ccc(N=Nc2cc(CCNC(=O)CCCC[C@@H]3SC[C@@H]4NC(=O)N[C@@H]43)ccc2O)cc1)C(=O)N[C@@H](C)C(=O)NC(Cc1ccccc1)P(=O)(Oc1ccccc1)Oc1ccccc1 (stereo partly drawn) [MTS-I-49]
Chemical Cleavage, number of identified peptides (alcohol dehydrogenase 1; [8]): 0 | On Bead Digestion, amino acid sequence coverage (alcohol dehydrogenase 1; on bead digestion): 20% | On Bead Digestion, number of identified peptides (alcohol dehydrogenase 1; on bead digestion): 3 | Chemical Cleavage, number of identified peptides (hemoglobin alpha 1; [8]): 0 | On Bead Digestion, amino acid sequence coverage (hemoglobin alpha 1; on bead digestion): 25% | On Bead Digestion, number of identified peptides (hemoglobin alpha 1; on bead digestion): 3 | Chemical Cleavage, number of identified peptides [1, 8]: 0 | On Bead Digestion, amino acid sequence coverage ([1]; on bead digestion): 34% | On Bead Digestion, number of identified peptides ([1]; on bead digestion): 3 | Chemical Cleavage, amino acid sequence coverage [2, 8]: 12% | Chemical Cleavage, number of identified peptides [2, 8]: 2 | On Bead Digestion, amino acid sequence coverage ([2]; on bead digestion): 44% | On Bead Digestion, number of identified peptides ([2]; on bead digestion): 8 | Chemical Cleavage, number of identified peptides (carbonmonoxy hemoglobin; [8]): 0 | On Bead Digestion, amino acid sequence coverage (carbonmonoxy hemoglobin; on bead digestion): 68% | On Bead Digestion, number of identified peptides (carbonmonoxy hemoglobin; on bead digestion): 7 | Chemical Cleavage, number of identified peptides [3, 8]: 0 | On Bead Digestion, amino acid sequence coverage ([3]; on bead digestion): 6% | On Bead Digestion, number of identified peptides ([3]; on bead digestion): 2 | Chemical Cleavage, number of identified peptides (albumin 1; [8]): 0 | On Bead Digestion, amino acid sequence coverage (albumin 1; on bead digestion): 6% | On Bead Digestion, number of identified peptides (albumin 1; on bead digestion): 2 | Chemical Cleavage, number of identified peptides [4, 8]: 0 | On Bead Digestion, amino acid sequence coverage ([4]; on bead digestion): 6% | On Bead Digestion, number of identified peptides ([4]; on bead digestion): 2 | Chemical Cleavage, number of identified peptides [5, 8]: 0 | On Bead Digestion, amino acid sequence coverage ([5]; on bead digestion): 10% | On Bead Digestion, number of identified peptides ([5]; on bead digestion): 2 | Chemical Cleavage, amino acid sequence coverage [6, 8]: 8% | Chemical Cleavage, number of identified peptides [6, 8]: 3 | On Bead Digestion, amino acid sequence coverage ([6]; on bead digestion): 45% | On Bead Digestion, number of identified peptides ([6]; on bead digestion): 22 | decrease of the level of background peptides [7]: over 90%
